# Species: Rattus norvegicus
# Test: DrugMatrix - Regimen: Daily Repeat
# Assay type: toxicity, organism-based, Sprague-Dawley
# Set-up: regimen Daily Repeat, gender Male, age 6-8 weeks
# Conditions: in vivo, po, route oral GAVAGE, vehicle .5 % CMC; for BASOPHIL / EOSINOPHIL / ERYTHROCYTE COUNT / HEMATOCRIT / HEMOGLOBIN / LEUKOCYTE COUNT / LYMPHOCYTE / MEAN CORPUSCULAR HEMOGLOBIN / MEAN CORPUSCULAR HEMOGLOBIN CONCENTRATION / MEAN CORPUSCULAR VOLUME / MONOCYTE / NEUTROPHIL / PLATELET COUNT: tissue Blood; for ALANINE AMINOTRANSFERASE / ALBUMIN / ALKALINE PHOSPHATASE / ASPARTATE AMINOTRANSFERASE / BLOOD UREA NITROGEN / CARBON DIOXIDE / CHLORIDE / CHOLESTEROL / CREATINE PHOSPHOKINASE / CREATININE / GLUCOSE / LACTATE DEHYDROGENASE / LIPASE / PHOSPHORUS / POTASSIUM / SODIUM / TOTAL BILIRUBIN / TOTAL PROTEIN / URIC ACID: tissue Plasma
# [1] = 0 mg/kg, 96 h, dose level Control, time 4 day
# [2] = 0 mg/kg, […], dose level Control, time 6 day
# [3] = 0 mg/kg, […], dose level Control, time 14 day
# [4] = […], 96 h, dose 4.6 mg/Kg, dose level High, time 4 day
# [5] = […], dose 4.6 mg/Kg, dose level High, time 6 day
# [6] = […], dose 4.6 mg/Kg, dose level High, time 14 day
smiles,measurement,setting,value
COc1ccc(C(=O)Nc2c(Cl)c[n+]([O-])cc2Cl)c2ccc(C(F)(F)F)nc12 [SCH-351591],BASOPHIL,[1],0.5%
same,EOSINOPHIL,[1],1.85%
same,ERYTHROCYTE COUNT,[1],6.99 x10E6/uL
same,HEMATOCRIT,[1],43.82%
same,HEMOGLOBIN,[1],13.87 G/DL
same,LEUKOCYTE COUNT,[1],12.01 x10E3/uL
same,LYMPHOCYTE,[1],82.07%
same,MEAN CORPUSCULAR HEMOGLOBIN,[1],19.8 pg
same,MEAN CORPUSCULAR HEMOGLOBIN CONCENTRATION,[1],31.63 G/DL
same,MEAN CORPUSCULAR VOLUME,[1],62.7 fL
same,MONOCYTE,[1],2.6%
same,NEUTROPHIL,[1],12.38%
same,PLATELET COUNT,[1],1155 x10E3/uL
same,ALANINE AMINOTRANSFERASE,[1],31.67 u/L
same,ALBUMIN,[1],4.12 G/DL
same,ALKALINE PHOSPHATASE,[1],396 u/L
same,ASPARTATE AMINOTRANSFERASE,[1],75.67 u/L
same,BLOOD UREA NITROGEN,[1],17.5 mg/dL
same,CARBON DIOXIDE,[1],28.83 mmol/L
same,CHLORIDE,[1],103.83 MEQ/L
same,CHOLESTEROL,[1],84.83 mg/dL
same,CREATINE PHOSPHOKINASE,[1],597.17 u/L
same,CREATININE,[1],0.3 mg/dL
same,GLUCOSE,[1],161.5 mg/dL
same,LACTATE DEHYDROGENASE,[1],138.67 u/L
same,LIPASE,[1],11.5 u/L
same,PHOSPHORUS,[1],11.58 mg/dL
same,POTASSIUM,[1],6.87 MEQ/L
same,SODIUM,[1],146.83 MEQ/L
same,TOTAL BILIRUBIN,[1],0.38 mg/dL
same,TOTAL PROTEIN,[1],6.33 G/DL
same,URIC ACID,[1],1.37 mg/dL
same,BASOPHIL,[2],0.37%
same,EOSINOPHIL,[2],0.38%
same,ERYTHROCYTE COUNT,[2],6.89 x10E6/uL
same,HEMATOCRIT,[2],47.38%
same,HEMOGLOBIN,[2],14.8 G/DL
same,LEUKOCYTE COUNT,[2],13.59 x10E3/uL
same,LYMPHOCYTE,[2],80.27%
same,MEAN CORPUSCULAR HEMOGLOBIN,[2],21.52 pg
same,MEAN CORPUSCULAR HEMOGLOBIN CONCENTRATION,[2],31.22 G/DL
same,MEAN CORPUSCULAR VOLUME,[2],68.83 fL
same,MONOCYTE,[2],2.78%
same,NEUTROPHIL,[2],15.65%
same,PLATELET COUNT,[2],1330.17 x10E3/uL
same,BASOPHIL,[3],0.38%
same,EOSINOPHIL,[3],0.6%
same,ERYTHROCYTE COUNT,[3],7.78 x10E6/uL
same,HEMATOCRIT,[3],48.3%
same,HEMOGLOBIN,[3],15.42 G/DL
same,LEUKOCYTE COUNT,[3],13.55 x10E3/uL
same,LYMPHOCYTE,[3],81.18%
same,MEAN CORPUSCULAR HEMOGLOBIN,[3],19.8 pg
same,MEAN CORPUSCULAR HEMOGLOBIN CONCENTRATION,[3],31.92 G/DL
same,MEAN CORPUSCULAR VOLUME,[3],62.08 fL
same,MONOCYTE,[3],1.72%
same,NEUTROPHIL,[3],15.17%
same,PLATELET COUNT,[3],1083.83 x10E3/uL
same,ALANINE AMINOTRANSFERASE,[2],36 u/L
same,ALBUMIN,[2],4.03 G/DL
same,ALKALINE PHOSPHATASE,[2],354.17 u/L
same,ASPARTATE AMINOTRANSFERASE,[2],76.5 u/L
same,BLOOD UREA NITROGEN,[2],19.33 mg/dL
same,CARBON DIOXIDE,[2],27.83 mmol/L
same,CHLORIDE,[2],105.5 MEQ/L
same,CHOLESTEROL,[2],68.83 mg/dL
same,CREATINE PHOSPHOKINASE,[2],383.83 u/L
same,CREATININE,[2],0.35 mg/dL
same,GLUCOSE,[2],165.83 mg/dL
same,LACTATE DEHYDROGENASE,[2],155.17 u/L
same,LIPASE,[2],9.83 u/L
same,PHOSPHORUS,[2],12.4 mg/dL
same,POTASSIUM,[2],6.9 MEQ/L
same,SODIUM,[2],147.33 MEQ/L
same,TOTAL BILIRUBIN,[2],0.52 mg/dL
same,TOTAL PROTEIN,[2],6.42 G/DL
same,URIC ACID,[2],1.6 mg/dL
same,ALANINE AMINOTRANSFERASE,[3],36.83 u/L
same,ALBUMIN,[3],4.13 G/DL
same,ALKALINE PHOSPHATASE,[3],328.17 u/L
same,ASPARTATE AMINOTRANSFERASE,[3],74.83 u/L
same,BLOOD UREA NITROGEN,[3],18.67 mg/dL
same,CARBON DIOXIDE,[3],29.33 mmol/L
same,CHLORIDE,[3],105.17 MEQ/L
same,CHOLESTEROL,[3],72 mg/dL
same,CREATINE PHOSPHOKINASE,[3],217.67 u/L
same,CREATININE,[3],0.45 mg/dL
same,GLUCOSE,[3],151.17 mg/dL
same,LACTATE DEHYDROGENASE,[3],133.17 u/L
same,LIPASE,[3],14.5 u/L
same,PHOSPHORUS,[3],11.55 mg/dL
same,POTASSIUM,[3],6.77 MEQ/L
same,SODIUM,[3],149.33 MEQ/L
same,TOTAL BILIRUBIN,[3],0.37 mg/dL
same,TOTAL PROTEIN,[3],6.62 G/DL
same,URIC ACID,[3],1.57 mg/dL
same,BASOPHIL,[4],0.27%
same,EOSINOPHIL,[4],1.13%
same,ERYTHROCYTE COUNT,[4],6.53 x10E6/uL
same,HEMATOCRIT,[4],40.97%
same,HEMOGLOBIN,[4],13.13 G/DL
same,LEUKOCYTE COUNT,[4],18.12 x10E3/uL
same,LYMPHOCYTE,[4],79.83%
same,MEAN CORPUSCULAR HEMOGLOBIN,[4],20.13 pg
same,MEAN CORPUSCULAR HEMOGLOBIN CONCENTRATION,[4],32.1 G/DL
same,MEAN CORPUSCULAR VOLUME,[4],62.73 fL
same,MONOCYTE,[4],2.33%
same,NEUTROPHIL,[4],15.77%
same,PLATELET COUNT,[4],1324.67 x10E3/uL
same,ALANINE AMINOTRANSFERASE,[4],40.33 u/L
same,ALBUMIN,[4],3.93 G/DL
same,ALKALINE PHOSPHATASE,[4],341 u/L
same,ASPARTATE AMINOTRANSFERASE,[4],77 u/L
same,BLOOD UREA NITROGEN,[4],21.33 mg/dL
same,CARBON DIOXIDE,[4],23.33 mmol/L
same,CHLORIDE,[4],105 MEQ/L
same,CHOLESTEROL,[4],88 mg/dL
same,CREATINE PHOSPHOKINASE,[4],540.67 u/L
same,CREATININE,[4],0.4 mg/dL
same,GLUCOSE,[4],177 mg/dL
same,LACTATE DEHYDROGENASE,[4],256 u/L
same,LIPASE,[4],18 u/L
same,PHOSPHORUS,[4],12.67 mg/dL
same,POTASSIUM,[4],6.37 MEQ/L
same,SODIUM,[4],146.33 MEQ/L
same,TOTAL BILIRUBIN,[4],0.37 mg/dL
same,TOTAL PROTEIN,[4],6.23 G/DL
same,URIC ACID,[4],1.67 mg/dL
same,BASOPHIL,[5],0.33%
same,EOSINOPHIL,[5],0.37%
same,ERYTHROCYTE COUNT,[5],7.26 x10E6/uL
same,HEMATOCRIT,[5],48.6%
same,HEMOGLOBIN,[5],14.77 G/DL
same,LEUKOCYTE COUNT,[5],20.98 x10E3/uL
same,LYMPHOCYTE,[5],75.93%
same,MEAN CORPUSCULAR HEMOGLOBIN,[5],20.37 pg
same,MEAN CORPUSCULAR HEMOGLOBIN CONCENTRATION,[5],30.33 G/DL
same,MEAN CORPUSCULAR VOLUME,[5],67.07 fL
same,MONOCYTE,[5],2.13%
same,NEUTROPHIL,[5],19.93%
same,PLATELET COUNT,[5],1217.67 x10E3/uL
same,BASOPHIL,[6],0.38%
same,EOSINOPHIL,[6],0.52%
same,ERYTHROCYTE COUNT,[6],7.4 x10E6/uL
same,HEMATOCRIT,[6],46.48%
same,HEMOGLOBIN,[6],14.82 G/DL
same,LEUKOCYTE COUNT,[6],23.35 x10E3/uL
same,LYMPHOCYTE,[6],67.1%
same,MEAN CORPUSCULAR HEMOGLOBIN,[6],20.06 pg
same,MEAN CORPUSCULAR HEMOGLOBIN CONCENTRATION,[6],31.86 G/DL
same,MEAN CORPUSCULAR VOLUME,[6],62.92 fL
same,MONOCYTE,[6],1.96%
same,NEUTROPHIL,[6],28.36%
same,PLATELET COUNT,[6],1247.4 x10E3/uL
same,ALANINE AMINOTRANSFERASE,[5],24.33 u/L
same,ALBUMIN,[5],3.9 G/DL
same,ALKALINE PHOSPHATASE,[5],313.33 u/L
same,ASPARTATE AMINOTRANSFERASE,[5],61.33 u/L
same,BLOOD UREA NITROGEN,[5],17.67 mg/dL
same,CARBON DIOXIDE,[5],25.67 mmol/L
same,CHLORIDE,[5],108.33 MEQ/L
same,CHOLESTEROL,[5],80.67 mg/dL
same,CREATINE PHOSPHOKINASE,[5],190.33 u/L
same,CREATININE,[5],0.47 mg/dL
same,GLUCOSE,[5],161 mg/dL
same,LACTATE DEHYDROGENASE,[5],82 u/L
same,LIPASE,[5],43.33 u/L
same,PHOSPHORUS,[5],12.93 mg/dL
same,POTASSIUM,[5],6.5 MEQ/L
same,SODIUM,[5],149.33 MEQ/L
same,TOTAL BILIRUBIN,[5],0.43 mg/dL
same,TOTAL PROTEIN,[5],6.13 G/DL
same,URIC ACID,[5],1.47 mg/dL
same,ALANINE AMINOTRANSFERASE,[6],34.6 u/L
same,ALBUMIN,[6],3.96 G/DL
same,ALKALINE PHOSPHATASE,[6],330.4 u/L
same,ASPARTATE AMINOTRANSFERASE,[6],65.6 u/L
same,BLOOD UREA NITROGEN,[6],21 mg/dL
same,CARBON DIOXIDE,[6],26.2 mmol/L
same,CHLORIDE,[6],106.4 MEQ/L
same,CHOLESTEROL,[6],70 mg/dL
same,CREATINE PHOSPHOKINASE,[6],225.2 u/L
same,CREATININE,[6],0.48 mg/dL
same,GLUCOSE,[6],157.4 mg/dL
same,LACTATE DEHYDROGENASE,[6],185.6 u/L
same,LIPASE,[6],29.2 u/L
same,PHOSPHORUS,[6],11.86 mg/dL
same,POTASSIUM,[6],6.36 MEQ/L
same,SODIUM,[6],149.8 MEQ/L
same,TOTAL BILIRUBIN,[6],0.38 mg/dL
same,TOTAL PROTEIN,[6],6.36 G/DL
same,URIC ACID,[6],1.84 mg/dL
